{"source": "patent US20120178124A1", "about": "“STEROL SIDE CHAIN-CLEAVING ENZYME PROTEIN AND USE THEREOF” (MITSUBISHI CHEMICAL CORPORATION, priority 2009, published 2012)", "molecular_target": "T1, Sphingomonas subterranea NBRC16086 P450scc CYPSS204A (CYPSS), wild type, SEQ ID NO: 2 (Novosphingobium subterraneum, UniProt A0A0B8ZS99)", "T1 sequence (A0A0B8ZS99 1-472)": "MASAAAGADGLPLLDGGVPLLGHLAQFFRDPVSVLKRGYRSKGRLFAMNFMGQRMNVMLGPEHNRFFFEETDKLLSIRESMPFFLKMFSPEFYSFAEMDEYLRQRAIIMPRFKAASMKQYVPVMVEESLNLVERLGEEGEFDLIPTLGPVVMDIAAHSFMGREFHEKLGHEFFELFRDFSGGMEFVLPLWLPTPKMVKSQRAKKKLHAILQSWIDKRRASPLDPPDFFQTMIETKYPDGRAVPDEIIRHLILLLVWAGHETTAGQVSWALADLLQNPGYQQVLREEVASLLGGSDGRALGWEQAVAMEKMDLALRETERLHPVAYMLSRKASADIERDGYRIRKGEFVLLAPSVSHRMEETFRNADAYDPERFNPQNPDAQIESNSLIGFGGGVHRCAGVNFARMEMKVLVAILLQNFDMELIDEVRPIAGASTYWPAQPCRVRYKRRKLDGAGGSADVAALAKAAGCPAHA", "test": "Kinetics analysis of CYPSS with 4-cholesten-3-one (conversion to progesterone, cell-free extract)", "note": "Entries after “also recorded” stand apart in the source; their conditions may differ."}
{"molecule": "CC(C)CCC[C@@H](C)[C@H]1CC[C@H]2[C@@H]3CCC4=CC(=O)CC[C@]4(C)[C@H]3CC[C@]12C", "note": "[4-cholesten-3-one]", "values": [{"measurement": "Vmax", "setting": "4-cholesten-3-one 0.1 to 500 μM, pH 7.5, 15° C., 60 minutes, Lineweaver-Burk plot", "result": 78.7, "unit": "mmol/min/mol"}, {"measurement": "substrate inhibition", "setting": "4-cholesten-3-one, in words", "result": "hardly undergoes substrate inhibition; also recorded: substrate inhibition of CYPSS was lower than that of CYP204A1"}, {"measurement": "Vmax, times higher than that of CYP204A1", "setting": "compared with CYP204A1", "result": "approximately 1.7 times"}, {"measurement": "Vmax, relative activity", "setting": "relative to CYP204A1 (1.00)", "result": 1.66}, {"measurement": "decrease rate of the enzyme protein activity (substrate inhibition)", "setting": "substrate concentration increased from 10 μM to 100 μM, pH 7.5, 15° C.", "result": 10, "unit": "%"}]}
